A word on the IC50: it is the concentration that gives 50% inhibition.

The record followed here is patent US20210387966A1, “2-AMINO-N-HETEROARYL-NICOTINAMIDES AS NAV1.8 INHIBITORS” (Merck Sharp & Dohme Corp., priority 2018, published 2021).

This assay deals with T1, human Nav1.8 channels (Homo sapiens, UniProt Q9Y5Y9).
T1 construct: expressed in transfected cells
T1 sequence (Q9Y5Y9 whole entry): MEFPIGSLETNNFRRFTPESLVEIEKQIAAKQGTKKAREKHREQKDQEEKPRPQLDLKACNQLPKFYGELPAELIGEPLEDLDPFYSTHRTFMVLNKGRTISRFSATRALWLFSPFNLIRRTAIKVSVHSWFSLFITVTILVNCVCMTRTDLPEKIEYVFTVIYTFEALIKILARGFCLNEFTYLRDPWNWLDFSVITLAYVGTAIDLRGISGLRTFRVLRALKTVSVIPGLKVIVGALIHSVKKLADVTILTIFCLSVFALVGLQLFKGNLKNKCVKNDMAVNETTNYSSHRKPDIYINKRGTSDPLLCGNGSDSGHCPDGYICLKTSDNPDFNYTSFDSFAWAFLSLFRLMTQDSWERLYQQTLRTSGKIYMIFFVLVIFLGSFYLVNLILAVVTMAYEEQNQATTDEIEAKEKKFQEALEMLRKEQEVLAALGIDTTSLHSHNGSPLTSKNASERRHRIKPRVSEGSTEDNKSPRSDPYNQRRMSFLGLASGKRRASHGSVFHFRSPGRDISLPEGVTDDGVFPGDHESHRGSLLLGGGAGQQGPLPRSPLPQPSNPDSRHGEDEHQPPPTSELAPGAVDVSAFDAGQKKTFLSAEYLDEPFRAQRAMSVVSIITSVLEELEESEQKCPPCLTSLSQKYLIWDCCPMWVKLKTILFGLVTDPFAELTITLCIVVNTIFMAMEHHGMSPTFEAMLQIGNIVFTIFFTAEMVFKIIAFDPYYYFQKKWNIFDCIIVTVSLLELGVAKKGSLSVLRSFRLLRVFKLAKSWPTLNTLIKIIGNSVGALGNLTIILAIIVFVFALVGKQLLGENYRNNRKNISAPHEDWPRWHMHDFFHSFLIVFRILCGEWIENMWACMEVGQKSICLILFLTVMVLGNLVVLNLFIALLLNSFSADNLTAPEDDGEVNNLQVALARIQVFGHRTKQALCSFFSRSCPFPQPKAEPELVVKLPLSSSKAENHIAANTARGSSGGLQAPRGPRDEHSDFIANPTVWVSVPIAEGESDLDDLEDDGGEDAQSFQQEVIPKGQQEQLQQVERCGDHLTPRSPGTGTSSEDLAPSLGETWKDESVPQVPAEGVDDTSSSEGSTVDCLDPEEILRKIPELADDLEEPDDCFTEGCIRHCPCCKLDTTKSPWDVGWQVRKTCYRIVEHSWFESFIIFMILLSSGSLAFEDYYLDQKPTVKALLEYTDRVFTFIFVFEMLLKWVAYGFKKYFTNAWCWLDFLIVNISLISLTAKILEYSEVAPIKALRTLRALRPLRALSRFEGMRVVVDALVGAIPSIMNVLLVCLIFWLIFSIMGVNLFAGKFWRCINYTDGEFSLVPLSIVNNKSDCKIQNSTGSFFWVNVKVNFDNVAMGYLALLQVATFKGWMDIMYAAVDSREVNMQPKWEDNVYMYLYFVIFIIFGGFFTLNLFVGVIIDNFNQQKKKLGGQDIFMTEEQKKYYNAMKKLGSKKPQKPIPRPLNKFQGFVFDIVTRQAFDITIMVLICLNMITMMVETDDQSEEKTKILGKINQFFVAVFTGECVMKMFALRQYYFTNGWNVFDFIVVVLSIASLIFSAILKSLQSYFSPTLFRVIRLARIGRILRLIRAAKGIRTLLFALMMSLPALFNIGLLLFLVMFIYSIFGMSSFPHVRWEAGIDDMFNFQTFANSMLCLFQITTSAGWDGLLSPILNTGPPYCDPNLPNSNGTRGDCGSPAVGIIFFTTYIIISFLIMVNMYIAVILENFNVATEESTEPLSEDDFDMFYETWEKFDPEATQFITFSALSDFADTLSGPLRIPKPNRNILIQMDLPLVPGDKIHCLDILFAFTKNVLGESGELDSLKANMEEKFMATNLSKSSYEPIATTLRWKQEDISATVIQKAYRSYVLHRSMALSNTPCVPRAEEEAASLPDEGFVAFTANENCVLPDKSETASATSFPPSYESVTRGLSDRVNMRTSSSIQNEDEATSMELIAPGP
Nature of the assay: Nav1.8 Qube automated patch-clamp assay. Conditions: human Nav1.8 stably expressed in HEK 293 cells; whole-cell voltage clamp, room temperature; resting or inactivated state not specified; read-out: IC50 values (nM) for Examples in the Nav1.8 Qube Assay. Type of assay: cell-based. In a few lines: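 Whole-cell patch clamp at room temperature on HEK293 cells stably expressing human Nav1.8. A 1 Hz train of ten 20 ms pulses to 10 mV from −90 mV holding, with −67 mV repolarization, was applied; first- and tenth-pulse peak currents gave resting and inactivated-state IC50s by Hill fitting.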
(In general: Patch clamp records ionic current or voltage across a cell membrane.)
In the case of `CS(=O)(=O)c1cc(NC(=O)c2cc(C(F)(F)F)cnc2N2C[C@H]3CC[C@H]3C2)ccn1` [Example 152, 2-[(1R,5S)-3-azabicyclo[3.2.0]heptan-3-yl]-N-(2-methylsulfonyl-4-pyridyl)-5-(trifluoro-methyl)pyridine-3-carboxamide], the IC50 amounted to 155 nM.
The same measure for `N#Cc1cc(NC(=O)c2cc(C(F)(F)F)cnc2N2C[C@H]3CC[C@H]3C2)ccn1` [Example 153, 2-[(1R,5S)-3-azabicyclo[3.2.0]heptan-3-yl]-N-(2-cyano-4-pyridyl)-5-(tri-fluoromethyl)pyridine-3-carboxamide]: 310 nM; for `COc1ccnc(N2CCC(F)(F)CC2)c1C(=O)Nc1ccnc(S(N)(=O)=O)c1` [Example 159, 2-(4,4-difluoropiperidin-1-yl)-4-methoxy-N-(2-sulfamoylpyridin-4-yl)nicotinamide]: 1630 nM.
Take `Cc1cc(Cl)nc(N2CCC(F)(F)CC2)c1C(=O)Nc1ccnc(S(N)(=O)=O)c1` [Example 170, 6-chloro-2-(4,4-difluoropiperidin-1-yl)-4-methyl-N-(2-sulfamoylpyridin-4-yl)nicotinamide]: the IC50 was determined as 24 nM.
With `NS(=O)(=O)c1cc(NC(=O)c2cc(OC(F)F)cnc2N2CCCC(F)(F)CC2)ccn1` [Example 171, 2-(4,4-difluoroazepan-1-yl)-5-(difluoromethoxy)-N-(2-sulfamoylpyridin-4-yl)nicotinamide], the 50% inhibitory concentration (IC50) worked out at 9.2 nM.
For `Cc1ncc(C(=O)Nc2ccnc(S(N)(=O)=O)c2)c(N2CCCC(F)(F)CC2)n1` [Example 173, 4-(4,4-difluoroazepan-1-yl)-2-methyl-N-(2-sulfamoylpyridin-4-yl)pyrimidine-5-carboxamide], the IC50 was found to be 199 nM.
Turning to `NS(=O)(=O)c1cc(NC(=O)c2ccc(C(F)F)nc2N2CCCC(F)(F)CC2)ccn1` [Example 174, 2-(4,4-difluoroazepan-1-yl)-6-(difluoromethyl)-N-(2-sulfamoylpyridin-4-yl)nicotinamide], the IC50 was found to be 4.1 nM.
To `NS(=O)(=O)c1cc(NC(=O)c2cc(C(F)(F)F)cnc2N2CCC(F)(F)CC2)ccn1` [Example 175, 2-(4,4-difluoropiperidin-1-yl)-N-(2-sulfamoylpyridin-4-yl)-5-(trifluoromethyl) nicotinamide] belongs 53 nM.
Turning to `O=C(Nc1ccnc(S(=O)(=O)O)c1)c1cc(C(F)(F)F)cnc1N1CCC(F)(F)CC1` [Example 176, 4-(2-(4,4-difluoropiperidin-1-yl)-5-(trifluoromethyl)nicotinamido)pyridine-2-sulfonic acid], the IC50 worked out at 1090 nM.
For the compound `Cc1nc(N2CCC(F)(F)CC2)c(C(=O)Nc2ccnc(S(N)(=O)=O)c2)cc1F` [Example 178, 2-(4,4-difluoropiperidin-1-yl)-5-fluoro-6-methyl-N-(2-sulfamoylpyridin-4-yl)nicotinamide], the IC50 came out at 13 nM.
To `NS(=O)(=O)c1cc(NC(=O)c2cc(C(F)(F)F)nnc2N2CCCC(F)(F)CC2)ccn1` [Example 179, 3-(4,4-difluoroazepan-1-yl)-N-(2-sulfamoylpyridin-4-yl)-6-(trifluoromethyl)pyridazine-4-carboxamide] belongs 102 nM; to `Cc1nc(N2CCC(F)(F)CC2)c(C(=O)Nc2ccnc(S(N)(=O)=O)c2)cc1C(C)(C)C` [Example 180, 5-(tert-butyl)-2-(4,4-difluoropiperidin-1-yl)-6-methyl-N-(2-sulfamoylpyridin-4-yl)nicotinamide], 14 nM.
In the case of `NS(=O)(=O)c1cc(NC(=O)c2cc(C3CC3)c(C(F)(F)F)nc2N2CCC(F)(F)CC2)ccn1` [Example 181, 5-cyclopropyl-2-(4,4-difluoropiperidin-1-yl)-N-(2-sulfamoylpyridin-4-yl)-6-(trifluoromethyl)nicotinamide], the IC50 came out at 17 nM.
For the compound `NS(=O)(=O)c1cc(NC(=O)c2cc(C3CC3)c(OC(F)(F)F)nc2N2CCC(F)(F)CC2)ccn1` [Example 182, 5-cyclopropyl-2-(4,4-difluoropiperidin-1-yl)-N-(2-sulfamoylpyridin-4-yl)-6-(trifluoromethoxy)nicotinamide], the IC50 was determined as 62 nM.
To `Cc1nc(N2CCC(F)(F)CC2)c(C(=O)Nc2ccnc(S(N)(=O)=O)c2)cc1OCC(F)(F)F` [Example 183] belongs 82 nM; to `NS(=O)(=O)c1cc(NC(=O)c2cc(C(F)(F)F)c(C3CC3)nc2N2CCCC(F)(F)CC2)ccn1` [Example 185, 6-cyclopropyl-2-(4,4-difluoroazepan-1-yl)-N-(2-sulfamoylpyridin-4-yl)-5-(trifluoromethyl)nicotinamide], 3.8 nM; to `O=C(Nc1cncc(F)c1)c1cc(C(F)(F)F)cnc1N1CCCCCC1` [Example 186, 2-(azepan-1-yl)-N-(5-fluoropyridin-3-yl)-5-(trifluoromethyl)nicotinamide], 1290 nM.
`COc1cc(NC(=O)c2c(N3CCCCCC3)nc(C)c(Cl)c2C)ccn1` [Example 187, 2-(azepan-1-yl)-5-chloro-N-(2-methoxy-4-pyridyl)-4,6-dimethyl-pyridine-3-carboxamide]: the IC50 came to 141 nM.
The same measure for `Cc1nc(N2CCCCCC2)c(C(=O)Nc2cncc(S(N)(=O)=O)c2)c(C)c1Cl` [Example 188, 2-(azepan-1-yl)-5-chloro-4,6-dimethyl-N-(5-sulfamoyl-3-pyridyl)pyridine-3-carboxamide]: 5.9 nM.
For `Cc1nc(N2CCC(F)(F)CC2)c(C(=O)Nc2cncc(S(N)(=O)=O)c2)c(C)c1Cl` [Example 189, 5-chloro-2-(4,4-difluoro-1-piperidyl)-4,6-dimethyl-N-(5-sulfamoyl-3-pyridyl)pyridine-3-carboxamide], the IC50 was found to be 13 nM.
Regarding `Cc1nc(N2CCC3(CC2)CC3)c(C(=O)Nc2cncc(S(N)(=O)=O)c2)c(C)c1Cl` [Example 190, 2-(6-azaspiro[2.5]octan-6-yl)-5-chloro-4,6-dimethyl-N-(5-sulfamoyl-3-pyridyl)pyridine-3-carboxamide], the IC50 came out at 31 nM.
On to `Cc1nc(N2CCCCC2)c(C(=O)Nc2cncc(S(N)(=O)=O)c2)c(C)c1Cl` [Example 191, 5-chloro-4,6-dimethyl-2-(1-piperidyl)-N-(5-sulfamoyl-3-pyridyl)pyridine-3-carboxamide], for which the IC50 was 124 nM.
To `COc1ccc(C(=O)Nc2cncc(S(N)(=O)=O)c2)c(N2CCCC(F)(F)CC2)n1` [Example 192, 2-(4,4-difluoroazepan-1-yl)-6-methoxy-N-(5-sulfamoyl-3-pyridyl)pyridine-3-carboxamide] belongs 163 nM; to `N#Cc1cncc(NC(=O)c2cc(C(F)(F)F)cnc2N2CCCCCC2)c1` [Example 193, 2-(azepan-1-yl)-N-(5-cyano-3-pyridyl)-5-(trifluoromethyl)-pyridine-3-carboxamide], 654 nM.
Turning to `COc1cncc(NC(=O)c2cc(C(F)(F)F)cnc2N2CCCCCC2)c1` [Example 194, 2-(azepan-1-yl)-N-(5-methoxy-3-pyridyl)-5-(trifluoromethyl)-pyridine-3-carboxamide], the IC50 amounted to 1550 nM.
On to `Cc1cncc(NC(=O)c2cc(C(F)(F)F)cnc2N2CCCCCC2)c1` [Example 195, 2-(azepan-1-yl)-N-(5-methyl-3-pyridyl)-5-(tri-fluoromethyl)-pyridine-3-carboxamide], for which the concentration for half-maximal inhibition (IC50) was determined as 2770 nM.
Regarding `O=C(Nc1cncc(CO)c1)c1cc(C(F)(F)F)cnc1N1CCCCCC1` [Example 196, 2-(azepan-1-yl)-N-[5-(hydroxymethyl)-3-pyridyl]-5-(trifluoro-methyl)pyridine-3-carboxamide], the IC50 worked out at 5190 nM.
To `N#Cc1cc(NC(=O)c2cc(C(F)(F)F)cnc2N2CCCCCC2)ccn1` [Example 197, 2-(azepan-1-yl)-N-(2-cyano-4-pyridyl)-5-(tri-fluoromethyl)pyridine-3-carboxamide] belongs 244 nM; to `CCS(=O)(=O)c1cc(NC(=O)c2cc(C(F)(F)F)cnc2N2CCCCCC2)ccn1` [Example 198, 2-(azepan-1-yl)-N-(2-ethylsulfonyl-4-pyridyl)-5-(trifluoro-methyl)pyridine-3-carboxamide], 425 nM.
The same measure for `O=C(Nc1ccc2ncc(Br)n2c1)c1cc(C(F)(F)F)cnc1N1CCCCCC1` [Example 199, 2-(azepan-1-yl)-N-(3-bromoimidazo[1,2-a]pyridin-6-yl)-5-(trifluoromethyl)-pyridine-3-carboxamide]: 5070 nM; for `O=C(Nc1cncc(C(F)(F)F)c1)c1cc(C(F)(F)F)cnc1N1CCCCCC1` [Example 200, 2-(azepan-1-yl)-5-(trifluoromethyl)-N-[5-(trifluoromethyl)-3-pyridyl]pyridine-3-carboxamide]: 9670 nM.
Regarding `Cc1nc(N2CCCCCC2)c(C(=O)Nc2ccnc(S(N)(=O)=O)c2)c(C)c1Cl` [Example 201, 2-(azepan-1-yl)-5-chloro-4,6-dimethyl-N-(2-sulfamoylpyridin-4-yl)nicotinamide], the IC50 turned out to be 1.3 nM.
`Cc1nc(N2CCC3(CC2)CC3)c(C(=O)Nc2ccnc(S(N)(=O)=O)c2)c(C)c1Cl` [Example 202, 5-chloro-4,6-dimethyl-2-(6-azaspiro[2.5]octan-6-yl)-N-(2-sulfamoylpyridin-4-yl)nicotinamide]: the IC50 came out at 1.9 nM.
As for `NC(=O)c1cc(NC(=O)c2cc(C(F)(F)F)cnc2N2CCCCCC2)ccn1` [Example 203, 4-(2-(azepan-1-yl)-5-(trifluoromethyl)nicotinamido)picolinamide], the IC50 was 139 nM.
As for `NS(=O)(=O)c1cc(NC(=O)c2cc(Br)cnc2N2CCC(F)(F)CC2)ccn1` [Example 204, 5-bromo-2-(4,4-difluoropiperidin-1-yl)-N-(2-sulfamoylpyridin-4-yl)nicotinamide], the IC50 stood at 55 nM.
Consider `NS(=O)(=O)c1cc(NC(=O)c2cc(-c3ccccc3)cnc2N2CCC(F)(F)CC2)ccn1` [Example 205, 2-(4,4-difluoropiperidin-1-yl)-5-phenyl-N-(2-sulfamoylpyridin-4-yl)nicotinamide], for which the IC50 is 71 nM.
